# Source: US8197775B2, “Detection article having fluid control film” (priority 1999, dated 2012)
# Test system: Escherichia coli ATCC 51813
# Assay: Minimum inhibitory concentration (MIC) test using microchannels, MUG fluorescence read-out
# Type: cell-based
# Conditions: ATCC51813, VRB media with MUG 0.5 mg/ml, 16 hours at 37° C., control tubes and microchannels
# Procedure: Microchannel polyethylene films were heat embossed on a hydraulic press according to the procedure outlined in U.S. patent application Ser. No. 08/905,481. […] The channels were covered with ScotchPak #33 (3M Company) using an iron heated to 149 degrees C. (300 degrees F.), forming a series of capillary channels.
# A dilution series of tetracycline was prepared in VRB media (7.0 g Bacto peptone, 3.0 g yeast extract, 1.5 g bile salts per liter) containing the fluorescent indicator methylumbelliferyl glucuronide (MUG, 0.5 mg/ml). The following tetracycline concentrations were prepared: 40, 4, 0.4, 0.04, and 0.004 micrograms/ml. Approximately 1 ml of each solution was placed in a test tube. A suspension of Escherichia coli ATCC 51813 (100 microliters of approximately 10^7 bacteria/ml) was added to each tube. A syringe was used to transfer each solution into adjacent microchannels (1.6 microliters/channel). Both the control tubes and the microchannel device were incubated for 16 hours at 37° C. After incubation the samples were observed under ultraviolet radiation.
compound,measurement,value
CN(C)[C@@H]1C(O)=C(C(N)=O)C(=O)[C@@]2(O)C(O)=C3C(=O)c4c(O)cccc4[C@@](C)(O)[C@H]3C[C@@H]12 [tetracycline],MIC,4 µg/mL
